# Assay results taken from patent publication US20260364124A1, “ANTI-C. DIFFICILE SMALL MOLECULE METABOLITES FROM DIET AND GUT MICROBIOME” (The Children's Medical Center Corporation, priority 2023, published 2026).
# “Also recorded” adds a separate entry of the source.
# Tested on: B. uniformis AgshD
# Assay: In vitro aglycone liberation by B. uniformis gshD deletion mutant (LC-MS)
# Parameters: species or system Bacteroides uniformis ATCC 8492
# Conditions: role: substrate; B. uniformis AgshD (FIGS. 5A, 5B)
# Procedure: FIGS. 5A and 5B show microbiome-mediated polyphenol aglycone liberation. […] Step 2: Spent media was filter-sterilized. Step 3: C. difficile was grown in spent media from either vehicle or polydatin (top).
# Generation of Bacteroides gene deletion mutants: Clean deletion mutants were created by allelic replacement whereby Bacteroides uniformis ATCC 8492 gshD (BACUNI_00919)was deleted. A modified pKNOCK-bla-ermGb suicide vector, pKNOCK-bla-ermGb_pheS*, that was previously engineered with a counter-selection system mediated by a variant phenylalanyl-tRNA synthetase (PheSA303G), lethal in the presence of 4-chloro-phenylalanine was leveraged. To generate deletion constructs, 1 kb regions flanking the genomic region-of-interest were amplified by PCR (Platinum SuperFi PCR Master Mix), purified, and cloned into the pKNOCK-bla-ermGb_pheS* plasmid in a three-piece ligation reaction. To mobilize resulting plasmids into Bacteroides, a triparental mating strategy was implemented. Overnight cultures of Bacteroides grown in BSG were diluted 50-fold into fresh pre-reduced BSG and grown to early exponential phase (OD600 ~0.1). The recipient strain was centrifuged at 4,000 rpm for 5 minutes and resuspended in 200 μL of 1× PBS. One-day-old E. coliDH5α lambda pir donor strain and E. coliDH5α helper strain with pRK 231 were scrapped from LB agar plates into 200 μL of 1× PBS. […]
smiles,measurement,value
OC[C@H]1O[C@@H](Oc2cc(O)cc(/C=C/c3ccc(O)cc3)c2)[C@H](O)[C@@H](O)[C@@H]1O [polydatin],liberation of resveratrol from polydatin by gshD mutant,lacking the ability to metabolize polydatin; also recorded: ablated in B. uniformis AgshD
